Reference: US20230286973A1, “PROTEIN SECRETION INHIBITORS” (KEZAR LIFE SCIENCES, priority 2020, published 2023)
Where two headings read alike, the source gives them in different places.

Key:
[1] = tested on: multiple myeloma cell line NCI-H929; experiment: H929 Cell Viability Assay; type: cell-based, human; settings: Homo sapiens, NCI-H929, 48 h, NCI-H929 cells, Celltiter-Glo
How it was run: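 Viability is scored by CellTiter-Glo luminescence following a 48-hour treatment at 37° C. Data for structures shown without stereochemistry refer to stereoisomer mixtures.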

[2] = tested on: PD1-ss+10aa/Gaussia Luciferase; experiment: Dox-Induced PD1-ss-Gluc Assay; type: cell-based; settings: 24 hr Dox induction, 293FRT/TO cells, read-out: 24 hr Dox Inducible PD1ssGluc 293FRT/TO: Mean IC50
How it was run: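 Gaussia luciferase fused downstream of the PD1 signal peptide plus 10 residues was expressed on doxycycline induction in stably transfected Flp-In 293 T-REx cells. Compounds were added with doxycycline and incubated at 37 °C, 5% CO2.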

[3] = tested on: IL-2-FL/Gaussia Luciferase; experiment: Dox Induced IL2-FL-Gluc Assay; type: cell-based; settings: for IC50: 24 hr Dox induction, 293FRT/TO cells, read-out: 24 hr Dox Inducible IL2FLGluc 293FRT/TO: Mean IC50; for 24 hr Dox Inducible IL2FLGluc 293FRT/TO: IL2/PD1: ratio of IL2FLGluc IC50 to PD1ssGluc IC50
How it was run: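 Doxycycline induces an IL-2(1-153)–Gaussia luciferase fusion in a stable Flp-In 293 T-REx line. Compound exposure runs alongside induction at 37° C.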

[4] = Liver Microsome Stability Assay (monkey); settings: monkey liver microsomes, with NADPH, 1.0 uM compound
Description: (§1) Stability of a compound was assessed in the presence of liver microsomes from various sources—mouse, rat, monkey and human liver microsomes. 1.0 uM compound, 0.4% DMSO in 0.1 M Potassium Phosphate with 1.0 mg/mL liver microsomes, were incubated at 37° C. with or without 1 mM NADPH. The samples were quenched at 0, and 30 minutes.

[5] = tested on: HER3-ss+4aa/Gaussia Luciferase; experiment: Dox-Induced Her3-ss-Gluc Assay; type: cell-based; settings: 24 hr Dox induction, 293FRT/TO cells, read-out: 24 hr Dox Inducible Her3(ss + 4)Gluc 293FRT/TO: Mean IC50
Description: Flp-In 293 T-REx™ cells were transfected with pcDNA™5/FRT/TO plasmid inserted with cDNA encoding Gaussia Luciferase fused to the 3′ end of cDNA encoding HER3 signal sequence plus 4 amino acids (N-[…]-C) (SEQ ID NO: 2). Transfected cells were selected for resistance to the selectable markers Hygromycin and Blasticidin to create a stable cell line that contained the HER3-ss+4aa/Gaussia Luciferase cDNA insert whose expression was regulated under the T-REx™ system. The day before assay, cells were trypsinized and plated in 384-well tissue culture plates. The next day, compound dilutions in DMSO/media containing doxycycline were added to the wells and incubated at 37° C., 5% CO2.
For chemical structures that include one or more stereoisomers, but are illustrated without indicating stereochemistry, the assay data refers to a mixture of stereoisomers.

[6] = Liver Microsome Stability Assay (human); settings: human liver microsomes, with NADPH, 1.0 uM compound
Description: as §1

[7] = tested on: TNFα-FL/Gaussia Luciferase; experiment: Dox Induced TNFα-FL-Gluc Assay; type: cell-based; settings: for IC50: 24 hr Dox induction, 293FRT/TO cells, read-out: 24 hr Dox Inducible TNFaFLGluc 293FRT/TO: Mean IC50; for 24 hr Dox Inducible TNFaFLGluc 293FRT/TO: TNF/PD1: ratio of TNFaFLGluc IC50 to PD1ssGluc IC50
How it was run: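 Doxycycline-inducible Gaussia luciferase-tagged full-length TNFα (1-233) was expressed in stable Flp-In 293 T-REx cells. Compounds were co-added with doxycycline and incubated at 37 °C, 5% CO2.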

[8] = Liver Microsome Stability Assay (mouse); settings: mouse liver microsomes, with NADPH, 1.0 uM compound
Description: as §1

[9] = Liver Microsome Stability Assay (rat); settings: rat liver microsomes, with NADPH, 1.0 uM compound
Description: as §1

[10] = tested on: multiple myeloma cell line U266B1; experiment: U266 Cell Viability Assay; type: cell-based, human; settings: Homo sapiens, U-266, 48 h, U266B1 cells, Celltiter-Glo
How it was run: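 Viability is measured as luciferase signal from CellTiter-Glo following a 48-hour incubation with compound at 37° C. under 5% CO2. Where structures lack drawn stereochemistry, values refer to stereoisomer mixtures.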

[11] = '<=>' given where both are I.A.

Row | Structure (SMILES) | EC50 [1] [µM] | IC50 ([2]; mean) [µM] | IC50 ([3]; mean) [µM] | 24 hr Dox Inducible IL2FLGluc 293FRT/TO: IL2/PD1 [3, 11] | Liver Microsome Stability (Multiple Species): Monkey - % Remaining after 30 min w/NADPH [4] [%] | IC50 ([5]; mean) [µM] | Liver Microsome Stability (Multiple Species): Human - % Remaining after 30 min w/NADPH [6] [%] | IC50 ([7]; mean) [µM] | 24 hr Dox Inducible TNFaFLGluc 293FRT/TO: TNF/PD1 [7, 11] | Liver Microsome Stability (Multiple Species): Mouse - % Remaining after 30 min w/NADPH [8] [%] | Liver Microsome Stability (Multiple Species): Rat - % Remaining after 30 min w/NADPH [9] [%] | EC50 [10] [µM] | IC50 [2] [µM] | IC50 [3] [µM] | 24 hr Dox Inducible IL2FLGluc 293FRT/TO: IL2/PD1 [3] | IC50 [5] [µM] | IC50 [7] [µM] | 24 hr Dox Inducible TNFaFLGluc 293FRT/TO: TNF/PD1 [7]
1 | O=C(Nc1nc(/C=C/c2cn(CCO)cn2)cs1)c1cccn1Cc1ccncc1 [Compound C114, (E)-N-(4-(2-(1-(2-hydroxyethyl)-1H-imidazol-4-yl)vinyl)thiazol-2-yl)-1-(pyridin-4-ylmethyl)-1H-pyrrole-2-carboxamide] | > 25 | 6.9 | > 25 | >3.6 | 0.22 | > 25 | 0.67 | > 25 | >3.62 | 15.2 | 19.2 | > 25 |  |  |  |  |  | 
2 | O=C(Nc1nc([C@H]2CCCN2c2ccccc2)cs1)c1cccn1Cc1ccnnc1 [Compound C102, (R)-N-(4-(1-phenylpyrrolidin-2-yl)thiazol-2-yl)-1-(pyridazin-4-ylmethyl)-1H-pyrrole-2-carboxamide] | 3.98 | 0.0442 | 0.0975 | 2.2 | 0.39 | 0.109 | 0.93 | 0.984 | 22.2 | 6.44 | 2.73 | 14.6 |  |  |  |  |  | 
3 | O=C(Nc1nc([C@H]2CCCN2c2ccccc2)cs1)c1cccn1-c1cccc2cnccc12 [Compound C111, (R)-1-(isoquinolin-5-yl)-N-(4-(1-phenylpyrrolidin-2-yl)thiazol-2-yl)-1H-pyrrole-2-carboxamide] | > 25 | 0.318 | 0.654 | 2.1 | 0.28 | 0.295 | 0.86 | 4.94 | 15.5 | 0.64 | 0.62 | > 25 |  |  |  |  |  | 
4 | Cc1ccc(S(=O)(=O)N(C(=O)c2cccn2Cc2ccncc2)c2nc([C@H]3CCCN3S(=O)(=O)c3ccc(C)cc3)cs2)cc1 [Compound E52, (R)-1-(pyridin-4-ylmethyl)-N-tosyl-N-(4-(1-tosylpyrrolidin-2-yl)thiazol-2-yl)-1H-pyrrole-2-carboxamide] | > 25 | > 25 | > 25 | 1 | 0.32 | > 25 | 0.44 | > 25 |  | 1.28 | 9.09 | > 25 |  |  |  |  |  | 
5 | CC(=O)N(C)C/C=C/c1csc(NC(=O)c2cccn2Cc2ccncc2)n1 [Compound E15, (E)-N-(4-(3-(N-methylacetamido)prop-1-en-1-yl)thiazol-2-yl)-1-(pyridin-4-ylmethyl)-1H-pyrrole-2-carboxamide] | > 25 | > 25 | > 25 | 1 | 0.11 | > 25 | 0.91 | > 25 |  | 0.54 | 0.53 | > 25 |  |  |  |  |  | 
6 | O=C(Nc1nc([C@H]2CCCN2c2ccccc2)cs1)c1cccn1CCCC1CCOC1 (stereo partly drawn) [Compound C92, N-(4-((R)-1-phenylpyrrolidin-2-yl)thiazol-2-yl)-1-(3-(tetrahydrofuran-3-yl)propyl)-1H-pyrrole-2-carboxamide] | 22 | 2.21 | 5.55 | 2.5 | 5.09 | 3.01 | 7.96 | 24.5 | 11.1 | 15.8 | 3.9 | > 25 |  |  |  |  |  | 
7 | O=C(Nc1nc(/C=C/c2cnccn2)cs1)c1cccn1Cc1ccncc1 [Compound B43, (E)-N-(4-(2-(pyrazin-2-yl)vinyl)thiazol-2-yl)-1-(pyridin-4-ylmethyl)-1H-pyrrole-2-carboxamide] | > 25 |  |  |  | 0.92 |  | 1.83 |  |  | 1.19 | 1.88 | > 25 | 0.264 | > 25 | >95 | > 25 | > 25 | >94.5
8 | CC(C)c1cccc2nc(/C=C/c3csc(NC(=O)c4cccn4Cc4ccncc4)n3)cn12 [Compound B76, (E)-N-(4-(2-(5-isopropylimidazo[1,2-a]pyridin-2-yl)vinyl)thiazol-2-yl)-1-(pyridin-4-ylmethyl)-1H-pyrrole-2-carboxamide] | > 25 |  |  |  | 0.25 |  | 0.76 |  |  | 0.37 | 0.52 | > 25 | 0.419 | > 25 | >60 | 1.6 | > 25 | >59.6
9 | O=C(Nc1nc([C@H]2CCCN2c2ccc(OC3CCN(C(=O)C(F)(F)F)CC3)cc2)cs1)c1cccn1Cc1ccnc(F)c1 [Compound A92, (R)-1-((2-fluoropyridin-4-yl)methyl)-N-(4-(1-(4-((1-(2,2,2-trifluoroacetyl)piperidin-4-yl)oxy)phenyl)pyrrolidin-2-yl)thiazol-2-yl)-1H-pyrrole-2-carboxamide] | 0.463 |  |  |  | 22.5 |  | 63.5 |  |  | 52.3 | 43.6 | > 25 | 0.0233 | 0.0306 | 1.3 | 0.0473 | 0.254 | 10.9
